Laboratory results published in ChEMBL document CHEMBL3351624, “A semi-synthetic derivative of artemisinin, artesunate inhibits prostaglandin E2 production in LPS/IFNγ-activated BV2 microglia” (Bioorg Med Chem, 2014).
Active and inactive are the calls of the source. No cut-off for these calls is given here.

Assays:
[1] = Antiinflammatory activity in mouse BV2 cells assessed as LPS/IFNgamma-induced COX2 expression at 4 uM after 24 hrs by Western blot; type: functional, BV-2
[2] = target: T1, Inhibitor of nuclear factor kappa-B kinase subunit beta (Mus musculus) (UniProt O88351); assay: Inhibition of LPS/IFNgamma-induced IKKbeta phosphorylation in mouse BV2 cells at 1 to 4 uM pre-incubated for 30 mins before LPS/IFNgamma challenge for 1 hr by Western blot method; type: cell-based; conditions: BV-2
T1 sequence (whole entry): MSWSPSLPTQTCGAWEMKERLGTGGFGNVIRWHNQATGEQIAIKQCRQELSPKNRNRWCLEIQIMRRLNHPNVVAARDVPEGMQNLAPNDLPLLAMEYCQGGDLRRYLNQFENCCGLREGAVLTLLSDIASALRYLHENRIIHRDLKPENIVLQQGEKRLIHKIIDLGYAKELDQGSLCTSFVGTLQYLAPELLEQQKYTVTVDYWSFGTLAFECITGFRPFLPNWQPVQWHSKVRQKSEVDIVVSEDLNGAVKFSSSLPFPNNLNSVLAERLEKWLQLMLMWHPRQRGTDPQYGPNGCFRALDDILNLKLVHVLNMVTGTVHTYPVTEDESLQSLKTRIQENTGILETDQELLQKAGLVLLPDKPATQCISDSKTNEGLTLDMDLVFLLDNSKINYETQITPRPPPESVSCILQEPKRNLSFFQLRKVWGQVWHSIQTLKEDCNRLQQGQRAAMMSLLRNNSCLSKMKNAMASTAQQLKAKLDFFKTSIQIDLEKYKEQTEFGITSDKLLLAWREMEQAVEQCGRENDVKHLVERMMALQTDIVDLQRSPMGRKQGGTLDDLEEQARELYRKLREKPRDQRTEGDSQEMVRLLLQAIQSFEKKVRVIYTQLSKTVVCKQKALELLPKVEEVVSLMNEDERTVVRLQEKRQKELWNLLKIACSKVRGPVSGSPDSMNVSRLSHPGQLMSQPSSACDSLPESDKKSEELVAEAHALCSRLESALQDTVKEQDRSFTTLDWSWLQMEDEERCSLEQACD

BV-2 [3] = assay: Inhibition of IKK in mouse BV2 cells assessed as LPS/IFNgamma-induced IkappaB phosphorylation level at 4 uM pre-incubated for 30 mins before LPS/IFNgamma challenge for 1 hr by Western blot method; type: cell-based; design: scale not given: the % may be the effect or the level left
BV-2 [4] = assay: Antiinflammatory activity in mouse BV2 cells assessed as inhibition of LPS/IFNgamma-induced IL6 production at 0.5 to 4 uM pre-incubated before LPS/IFNgamma challenge and measured 24 hrs post LPS/IFNgamma challenge by ELISA method; type: functional, cell-based
[5] = Antiinflammatory activity in mouse BV2 cells assessed as LPS/IFNgamma-induced PGE2 production at 4 uM after 24 hrs by enzyme immunoassay; type: functional, BV-2
BV-2 [6] = assay: Antiinflammatory activity in mouse BV2 cells assessed as inhibition of LPS/IFNgamma-induced TNFalpha production at 1 to 4 uM pre-incubated before LPS/IFNgamma challenge and measured 24 hrs post LPS/IFNgamma challenge by ELISA method; type: functional, cell-based
[7] = target: T2, MAP kinase p38 (Mus musculus) (UniProt P47811+O08911+Q9WUI1+Q9Z1B7); assay: Inhibition of p38 in mouse BV2 cells assessed as reduction in LPS/IFNgamma-induced MAPKAPK2 phosphorylation at 1 to 4 uM pre-incubated for 30 mins before LPS/IFNgamma challenge for 1 hr by Western blot method; type: cell-based; conditions: BV-2
BV-2 [8] = assay: Inhibition of IKK in mouse BV2 cells assessed as LPS/IFNgamma-induced IkappaB phosphorylation level at 0.5 uM pre-incubated for 30 mins before LPS/IFNgamma challenge for 1 hr by Western blot method; type: cell-based; design: scale not given: the % may be the effect or the level left
BV-2 [9] = assay: Antiinflammatory activity in mouse BV2 cells assessed as inhibition of LPS/IFNgamma-induced COX2 expression at 0.5 to 4 uM after 24 hrs by Western blot; type: functional, cell-based
[10] = target: T3, Nuclear factor NF-kappa-B complex (Homo sapiens) (UniProt Q00653+P19838+Q04206); assay: Inhibition of NFkappaB (unknown origin) expressed in HEK293 cells assessed as TNFalpha-induced gene transcription at 4 uM pre-incubated for 30 mins prior to stimulation with TNFalpha for 6 hrs by luciferase reporter gene assay; type: cell-based; design: scale not given: the % may be the effect or the level left
T3 sequence (P19838 whole entry, looked up): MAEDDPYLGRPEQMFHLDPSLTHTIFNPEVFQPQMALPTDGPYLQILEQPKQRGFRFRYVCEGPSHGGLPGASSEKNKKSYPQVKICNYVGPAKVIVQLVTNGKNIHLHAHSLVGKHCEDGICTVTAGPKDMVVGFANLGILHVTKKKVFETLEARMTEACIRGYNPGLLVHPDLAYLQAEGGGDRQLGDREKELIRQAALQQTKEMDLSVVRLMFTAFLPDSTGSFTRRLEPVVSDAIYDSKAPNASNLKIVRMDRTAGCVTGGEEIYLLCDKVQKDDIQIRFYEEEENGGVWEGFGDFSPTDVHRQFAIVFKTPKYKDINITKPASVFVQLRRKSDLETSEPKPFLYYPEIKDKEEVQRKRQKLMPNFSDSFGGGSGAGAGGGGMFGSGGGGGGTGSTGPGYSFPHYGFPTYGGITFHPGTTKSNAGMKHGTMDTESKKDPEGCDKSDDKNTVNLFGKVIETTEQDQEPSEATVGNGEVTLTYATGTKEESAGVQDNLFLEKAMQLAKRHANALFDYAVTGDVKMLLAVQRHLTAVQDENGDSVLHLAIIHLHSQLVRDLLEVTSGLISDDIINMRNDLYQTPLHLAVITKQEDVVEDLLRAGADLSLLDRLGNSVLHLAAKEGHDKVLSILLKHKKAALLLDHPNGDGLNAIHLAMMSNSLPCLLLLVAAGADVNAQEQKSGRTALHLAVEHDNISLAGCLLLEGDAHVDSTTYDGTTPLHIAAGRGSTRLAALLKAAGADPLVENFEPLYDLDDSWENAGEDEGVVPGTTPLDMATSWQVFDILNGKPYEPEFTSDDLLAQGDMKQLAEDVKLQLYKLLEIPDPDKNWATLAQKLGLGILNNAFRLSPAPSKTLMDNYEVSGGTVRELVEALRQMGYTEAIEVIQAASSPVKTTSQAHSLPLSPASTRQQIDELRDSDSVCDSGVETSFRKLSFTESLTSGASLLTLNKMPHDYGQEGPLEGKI
T3 sequence (Q00653 whole entry, looked up): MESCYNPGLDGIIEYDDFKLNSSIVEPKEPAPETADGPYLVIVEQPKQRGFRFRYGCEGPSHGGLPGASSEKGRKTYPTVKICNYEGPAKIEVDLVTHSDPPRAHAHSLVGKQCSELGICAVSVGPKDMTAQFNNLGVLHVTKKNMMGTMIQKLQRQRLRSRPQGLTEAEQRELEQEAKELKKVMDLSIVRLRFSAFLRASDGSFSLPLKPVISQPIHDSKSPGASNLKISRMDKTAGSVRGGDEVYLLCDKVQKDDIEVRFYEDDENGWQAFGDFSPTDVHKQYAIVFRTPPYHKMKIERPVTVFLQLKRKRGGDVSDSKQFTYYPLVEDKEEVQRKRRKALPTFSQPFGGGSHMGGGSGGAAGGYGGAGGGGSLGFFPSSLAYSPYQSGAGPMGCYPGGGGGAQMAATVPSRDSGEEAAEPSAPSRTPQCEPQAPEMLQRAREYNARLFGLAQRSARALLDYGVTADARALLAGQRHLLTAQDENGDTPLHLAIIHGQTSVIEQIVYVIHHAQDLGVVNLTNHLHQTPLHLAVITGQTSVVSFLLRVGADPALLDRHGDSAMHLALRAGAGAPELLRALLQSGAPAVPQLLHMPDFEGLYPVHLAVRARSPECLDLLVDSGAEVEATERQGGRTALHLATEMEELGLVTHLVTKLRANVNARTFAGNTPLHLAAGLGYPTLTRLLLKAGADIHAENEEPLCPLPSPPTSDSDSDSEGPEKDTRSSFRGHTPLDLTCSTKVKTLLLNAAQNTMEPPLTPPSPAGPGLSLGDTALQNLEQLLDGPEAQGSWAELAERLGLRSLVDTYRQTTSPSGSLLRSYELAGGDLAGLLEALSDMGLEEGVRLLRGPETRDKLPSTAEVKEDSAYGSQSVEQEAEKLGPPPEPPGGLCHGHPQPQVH
T3 sequence (Q04206 whole entry, looked up): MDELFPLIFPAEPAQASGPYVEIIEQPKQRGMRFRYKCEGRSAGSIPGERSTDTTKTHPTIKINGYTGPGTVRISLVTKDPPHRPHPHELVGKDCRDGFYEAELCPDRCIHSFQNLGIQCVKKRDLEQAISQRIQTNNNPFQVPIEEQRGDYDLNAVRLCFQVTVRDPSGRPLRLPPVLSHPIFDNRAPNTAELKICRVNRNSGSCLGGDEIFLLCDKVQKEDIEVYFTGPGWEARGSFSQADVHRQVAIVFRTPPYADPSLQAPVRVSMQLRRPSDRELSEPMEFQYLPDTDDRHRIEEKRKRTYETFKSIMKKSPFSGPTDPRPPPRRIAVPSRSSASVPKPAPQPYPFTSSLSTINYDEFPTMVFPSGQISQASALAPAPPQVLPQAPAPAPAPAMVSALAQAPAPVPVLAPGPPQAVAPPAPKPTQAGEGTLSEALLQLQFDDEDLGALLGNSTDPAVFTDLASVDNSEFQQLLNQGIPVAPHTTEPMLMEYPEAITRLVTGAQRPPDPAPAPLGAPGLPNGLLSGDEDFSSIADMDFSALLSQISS

BV-2 [11] = assay: Inhibition of IKK in mouse BV2 cells assessed as LPS/IFNgamma-induced IkappaB phosphorylation level at 1 uM pre-incubated for 30 mins before LPS/IFNgamma challenge for 1 hr by Western blot method; type: cell-based; design: scale not given: the % may be the effect or the level left
BV-2 [12] = assay: Antiinflammatory activity in mouse BV2 cells assessed as inhibition of LPS/IFNgamma-induced mPGES1 expression at 0.5 to 4 uM after 24 hrs by Western blot; type: functional, cell-based
BV-2 [13] = assay: Inhibition of IKK in mouse BV2 cells assessed as reduction in LPS/IFNgamma-induced IkappaB phosphorylation level at 4 uM pre-incubated for 30 mins before LPS/IFNgamma challenge for 1 hr by ELISA method; type: cell-based
BV-2 [14] = assay: Inhibition of IKK in mouse BV2 cells assessed as LPS/IFNgamma-induced IkappaB phosphorylation level at 2 uM pre-incubated for 30 mins before LPS/IFNgamma challenge for 1 hr by Western blot method; type: cell-based; design: scale not given: the % may be the effect or the level left
[15] = target: T3, Nuclear factor NF-kappa-B complex (Homo sapiens); assay: Inhibition of NFkappaB (unknown origin) expressed in HEK293 cells assessed as reduction in TNFalpha-induced gene transcription at 0.5 to 4 uM pre-incubated for 30 mins prior to stimulation with TNFalpha for 6 hrs by luciferase reporter gene assay; type: cell-based
[16] = target: T2, MAP kinase p38 (Mus musculus); assay: Inhibition of LPS/IFNgamma-induced p38 phosphorylation in mouse BV2 cells at 1 to 4 uM pre-incubated for 30 mins before LPS/IFNgamma challenge for 1 hr by Western blot method; type: cell-based; conditions: BV-2
BV-2 [17] = assay: Inhibition of IKK in mouse BV2 cells assessed as reduction in LPS/IFNgamma-induced IkappaB degradation at 0.5 to 4 uM pre-incubated for 30 mins before LPS/IFNgamma challenge for 1 hr by ELISA method; type: cell-based
BV-2 [18] = assay: Inhibition of IKK in mouse BV2 cells assessed as reduction in LPS/IFNgamma-induced IkappaB degradation at 0.5 to 4 uM pre-incubated for 30 mins before LPS/IFNgamma challenge for 1 hr by Western blot method; type: cell-based
[19] = Toxicity against LPS/IFNgamma-induced mouse BV2 cells assessed as cell viability at 0.5 to 4 uM pre-incubated before LPS/IFNgamma challenge and measured 24 hrs post LPS/IFNgamma challenge by MTT assay; type: cell-based; conditions: bv-2, 24 h
[20] = target: T4, Inhibitor of nuclear factor kappa-B kinase subunit alpha (Mus musculus) (UniProt Q60680); assay: Inhibition of LPS/IFNgamma-induced IKKalpha phosphorylation in mouse BV2 cells at 1 to 4 uM pre-incubated for 30 mins before LPS/IFNgamma challenge for 1 hr by Western blot method; type: cell-based; conditions: BV-2
T4 sequence (whole entry): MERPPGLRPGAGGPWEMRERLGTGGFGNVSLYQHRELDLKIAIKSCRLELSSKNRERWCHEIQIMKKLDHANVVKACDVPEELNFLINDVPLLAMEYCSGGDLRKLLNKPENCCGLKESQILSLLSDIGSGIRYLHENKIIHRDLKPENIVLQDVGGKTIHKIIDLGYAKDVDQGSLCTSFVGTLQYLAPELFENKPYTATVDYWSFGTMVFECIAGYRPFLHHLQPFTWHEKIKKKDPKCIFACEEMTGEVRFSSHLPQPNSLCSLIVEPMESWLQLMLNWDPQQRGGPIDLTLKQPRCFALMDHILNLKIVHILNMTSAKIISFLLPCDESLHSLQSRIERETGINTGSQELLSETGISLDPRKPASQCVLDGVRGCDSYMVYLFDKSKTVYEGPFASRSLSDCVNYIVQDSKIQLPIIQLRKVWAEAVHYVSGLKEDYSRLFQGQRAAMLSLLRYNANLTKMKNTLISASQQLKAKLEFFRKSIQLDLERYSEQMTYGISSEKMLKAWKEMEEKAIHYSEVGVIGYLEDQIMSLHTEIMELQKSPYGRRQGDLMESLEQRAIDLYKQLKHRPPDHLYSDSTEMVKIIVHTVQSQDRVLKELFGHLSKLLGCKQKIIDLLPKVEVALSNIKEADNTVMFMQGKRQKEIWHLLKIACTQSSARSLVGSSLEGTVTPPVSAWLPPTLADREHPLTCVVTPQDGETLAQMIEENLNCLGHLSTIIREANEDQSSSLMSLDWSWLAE

BV-2 [21] = assay: Antiinflammatory activity in mouse BV2 cells assessed as inhibition of LPS/IFNgamma-induced PGE2 production at 2 uM after 24 hrs by enzyme immunoassay; type: functional, cell-based

inhibition [2]: Active
inhibition [7]: Active
Activity [10]: 35.4%
inhibition [15]: Active
inhibition [16]: Active
inhibition [20]: Active
SMILES: C[C@H]1[C@H](OC(=O)CCC(=O)O)O[C@@H]2O[C@@]3(C)CC[C@H]4[C@H](C)CC[C@@H]1[C@@]24OO3 [ARTESUNATE]
Activity [1]: 55%
Activity (BV-2 [3]): 44.4%
inhibition (BV-2 [4]): Dose-dependent effect
Activity [5]: 38.8%
inhibition (BV-2 [6]): Active
Activity (BV-2 [8]): 68.8%
inhibition (BV-2 [9]): Active
Activity (BV-2 [11]): 56.4%
inhibition (BV-2 [12]): Active
inhibition (BV-2 [13]): Active
Activity (BV-2 [14]): 44.3%
inhibition (BV-2 [17]): Active
inhibition (BV-2 [18]): Active
Activity [19]: Non-toxic
inhibition (BV-2 [21]): Active
